Data on two compounds can be found in patent US20050272700A1, “Topical treatment and prevention of human papilloma virus (HPV) infection” (priority 2004, published 2005).

Data set [1] can be described thus: Stability testing of I3C solutions and formulations by HPLC. The class given is physicochemical. The conditions noted are these: for amount of the active remaining: aqueous medium, 5° C.; for loss of potency: 2 weeks. As to the method: Stability testing of the formulations was performed by HPLC analysis. The area of the peak representing I3C or a derivative thereof was monitored.

The test system of data set [2] is DMBA-induced mammary tumors. Conditions: Wattenberg and Loub 1978; cited from earlier work.

For `OCc1c[nH]c2ccccc12` [Composition I3C, indole-3-carbinol], the “amount of the active remaining” value in data set [1] (pH 6.0, 2 weeks) is reported as “completely decomposed”; in data set [1] (pH 8.0, 2 weeks), “about 93%”. Further, the loss of potency in data set [1] (same aqueous composition at pH 7.4 without hydroxypropyl-β-cyclodextrin) was found to be 16%; in data set [1] (solution at pH 7.4 with added hydroxypropyl-β-cyclodextrin) it was 1.3%.

With `c1ccc2c(Cc3c[nH]c4ccccc34)c[nH]c2c1` [DIM, 3,3′-diindoylmethane], in data set [2], the “reduction of DMBA-induced mammary tumors” value is “somewhat effective”.
